Assay results published in PMC10044725, “Antioxidant, Anti-Inflammatory and Anti-Diabetic Activities of Tectona grandis Methanolic Extracts, Fractions, and Isolated Compounds” (Antioxidants, 2023).
Marks after values point to notes of the source that are not given here.

Tests used:
[1] = tested on: α-glucosidase; assay: α-Glucosidase inhibition assay (pNPG); assay type: biochemical; details: for Inhibitory Rate (%): at a concentration of 50 µM; for IC50: compounds
Description: The inhibitory effect on α-glucosidase was measured according to the previous report method with slight modifications. The 20 mM sample dissolved in DMSO was diluted to 50 μM in PBS, 10 μL sample was mixed with 50 μL of 0.1 μ/mL α-glucosidase solution in 0.1 M phosphate buffer (pH 6.5) in a 96-well microplate and 10 μL PBS was used as a blank control. The mixture was incubated at 37 °C for 10 min before adding 40 µL of 5 mM 4-nitrophenyl-α-D-glucopyranoside to each well. After 30 min of incubation at 37 °C, the reaction was terminated by adding 50 μL of 0.1 M Na2CO3 to this mixture. The released 4-nitrophenol absorbance measurements were carried out using a microplate reader (SpectraMax190, USA) at 405 nm.

[2] = DPPH free radical scavenging assay; details: half scavenging concentration; for EC50: isolated compounds, read-out: DPPH Assay SC50
Description: The DPPH free radical scavenging activities of T. grandis methanolic extract, different fractions and its compounds were conducted according to Dr. Yang et al.. […] The absorbance was measured using a microplate reader at 517 nm, and ascorbic acid was used as a positive control. The DPPH scavenging activity was calculated according to the following formula: Scavenging activity (%) = [1 − (A1 − A2)/(A3 − A4)] × 100% (1) where A1 is the OD value of the tested samples, A2 is the OD value of the sample control, A3 is the OD value of the negative control and A4 is the OD value of the blank control. The analysis was performed in triplicates and the results were described as SC50 values.

[3] = ABTS radical cation scavenging assay (Trolox equivalent)
Description: The ABTS radical cation (ABTS•+) scavenging activities were conducted in accordance with the instructions for the ABTS kit. The total antioxidant activity values were estimated using the Trolox equivalent antioxidant capacity test. The detection concentration of methanolic extract and different fractions was 80 μg/mL, and the detection concentration of compounds (1–23) was 50 μM. […] Then, 190 μL of ABTS working reagent was mixed with 10 μL sample and incubated at room temperature for 5 min. The absorbance was then measured using a microplate reader at 734 nm, and the scavenging activity was calculated according to Equation (2). The blank control group used DMSO to replace the sample. […] The analysis was performed in triplicates, 1.424, 0.0012 was a constant.

[4] = Ferric reducing antioxidant power (FRAP) assay; details: Trolox equivalent
Description: The FRAP assay was determined in accordance with the instructions for the FRAP kit. The total antioxidant activity values were estimated using the Trolox equivalent antioxidant capacity test. Initially, the detection concentration of methanolic extract and different fractions was 80 μg/mL, and the detection concentration of compounds (1–23) was 50 μM. Then, 190 μL of FRAP working reagent was mixed with 10 μL sample and incubated at room temperature for 20 min. The absorbance was then measured using a microplate reader at 593 nm, and the scavenging activity was calculated according to Equation (3). The blank control group used DMSO to replace the sample. […] The analysis was performed in triplicates, 0.8054, 0.0134 was a constant.

[5] = tested on: pBR322 DNA; assay: Prevention of AAPH-induced DNA oxidative damage; details: AAPH 20 mM; p < 0.0001 vs model
Description: The effects of T. grandis methanolic extract, different fractions and its compounds 15, 19 and 23 on the prevention of DNA oxidative damage were carried out using the method of Han et al.. Initially, 8 μL pBR322 DNA (50 μg/mL) in PBS (0.1 M, pH 6.8) was mixed with different concentrations of T. grandis fractions and its compounds (12 μL) and incubated in water at 37 °C for 30 min. Then, 5 μL AAPH (20 mM) was added to the mixture and the reaction continued for 60 min. The control group used the same volume of PBS (0.1 M, pH 6.8) to replace AAPH. The pre-treated samples were mixed with 5 × DNA loading buffer, and the mixture (8 μL) was taken for 1.0% agarose gel electrophoresis for 25 min. After electrophoresis, the gels were stained with ethidium bromide for 20 min. Finally, images were taken using a DNA gel imaging system (ChampChemi 610, Beijing sage creation Co., Ltd. Beijing, China).

[6] = methanolic extract and fractions at 80 μg/mL

| Inhibitory Rate (%) [1] | EC50 [2] [µM] | IC50 [1] [µM] | Compound | DPPH Assay SC50 ([2]; methanolic extract and fractions, ascorbic acid positive control) | ABTS Assay ([3]; compounds at 50 μM) | ABTS Assay [3, 6] | FRAP Assay ([4]; compounds at 50 μM) | FRAP Assay [4, 6] | concentration at which a protective effect against DNA oxidative damage begins [5] [mM] |
| --- | --- | --- | --- | --- | --- | --- | --- | --- | --- |
| 1.77 ± 4.08 ^e % |  | > 50 | O=C1c2cc(CO)ccc2C(=O)c2c(O)cccc21 [Compound 10, 1-hydroxy-6-hydroxymethyl anthraquinone] |  | 0.13± 0.00 ^c mmol Trolox/L |  | 0.01 ± 0.01 ^c mmol Trolox/L |  |  |
| 4.57 ± 4.37 ^e % |  | > 50 | O=C(O)C1OC(Oc2cc(-c3cc(=O)c4c(O)cc(O)cc4o3)ccc2O)C(O)C(O)C1O (stereo not drawn) [Compound 11, luteolin-3′-O-glucuronide] |  | 0.65 ± 0.00 ^b mmol Trolox/L |  | 0.01 ± 0.00 ^c mmol Trolox/L |  |  |
| 53.04 ± 0.36 ^bc % |  |  | COc1cc(C)cc2c1C(=O)c1c(O)cc(O)cc1C2=O [Compound 12, 1-O-methylemodin] |  | 0.03 ± 0.00 ^d mmol Trolox/L |  |  |  |  |
| 20.03 ± 2.44 ^c % | 25.8 ± 0.57 | > 50 | Cc1cc2c(cc1O)C(=O)c1ccccc1C2=O [Compound 14, 3-hydroxy-2-methyl-9,10-anthraquinone] |  | 0.09 ± 0.06 ^d mmol Trolox/L |  | 0.03 ± 0.00 ^c mmol Trolox/L |  |  |
| 12.53 ± 0.76 ^d % | 12.3 ± 0.53 | > 50 | O=C(O)c1c[nH]c2ccccc12 [Compound 16, 1H-indole-3-carboxylic acid] |  | 0.78 ± 0.01 ^a mmol Trolox/L |  | 0.28 ± 0.01 ^b mmol Trolox/L |  |  |
| 8.69 ± 1.94 ^de % |  | > 50 | COc1ccc(/C=C/C=O)cc1O [Compound 17, 3-hydroxy-4-methoxycinnamaladehyde] |  | 0.80 ± 0.01 ^a mmol Trolox/L |  |  |  |  |
| 57.40 ± 1.32 ^bc % | 6.17 ± 0.06 |  | COc1cc(C2Oc3c(OC)cc(CCCO)cc3C2CO)ccc1O (stereo not drawn) [Compound 19, rel-(2α,3β)-7-O-methylcedrusin] |  | 0.85 ± 0.03 ^a mmol Trolox/L |  | 0.25 ± 0.01 ^b mmol Trolox/L |  | 5.0 |
| 40.30 ± 0.76 ^c % | 8.66 ± 0.43 | > 50 | COc1cc(C(O)C(CO)Oc2c(OC)cc(/C=C/CO)cc2OC)cc(OC)c1O (stereo not drawn) [Compound 20, 7S,8R-syringylglycerol-8-O-4′-(synapyl alcohol) ether] |  | 0.67 ± 0.01 ^b mmol Trolox/L |  | 0.29 ± 0.00 ^b mmol Trolox/L |  |  |
| 20.58 ± 1.30 ^c % |  | > 50 | COc1cc(O)c2c(c1O)C(=O)c1cc(C)ccc1C2=O [Compound 22, austrocortirubin] |  | 0.32 ± 0.01 ^bc mmol Trolox/L |  |  |  |  |

Continued, compound first:

| Compound | Inhibitory Rate (%) [1] | EC50 [2] [µM] | IC50 [1] [µM] | DPPH Assay SC50 ([2]; methanolic extract and fractions, ascorbic acid positive control) | ABTS Assay ([3]; compounds at 50 μM) | ABTS Assay [3, 6] | FRAP Assay ([4]; compounds at 50 μM) | FRAP Assay [4, 6] | concentration at which a protective effect against DNA oxidative damage begins [5] [mM] |
| --- | --- | --- | --- | --- | --- | --- | --- | --- | --- |
| C[C@H]1O[C@H](O[C@H]2[C@H](O)[C@@H](O)[C@@H](O[C@H]3[C@H](O)[C@@H](O)C(O)O[C@@H]3CO)O[C@@H]2CO)[C@H](O)[C@@H](O)[C@@H]1N[C@H]1C=C(CO)[C@@H](O)[C@H](O)[C@H]1O (stereo partly drawn) [Acarbose, reference compound] | 99.53 ± 0.01 ^a % |  |  |  |  |  |  |  |  |
| O=C1O[C@H]([C@@H](O)CO)C(O)=C1O [Ascorbic acid, reference compound] |  | 13.45 ± 0.02 |  | 3.39 ± 0.98 ^e µg/mL | 0.85 ± 0.00 ^a mmol Trolox/L | 0.99 ± 0.00 ^a mmol Trolox/L | 1.01 ± 0.06 ^a mmol Trolox/L | 1.35 ± 0.02 ^b mmol Trolox/L |  |
| COc1ccc(-c2cc(=O)c3c(O)cc(O[C@@H]4O[C@H](C(=O)O)[C@@H](O)[C@H](O)[C@H]4O)cc3o2)cc1 [Compound 2, acacetin-7-O-β-glucuronide] | 31.35 ± 6.46 ^c % | 17.4 ± 1.08 | > 50 |  | 0.92 ± 0.01 ^a mmol Trolox/L |  | 0.03 ± 0.01 ^c mmol Trolox/L |  |  |
| O=c1cc(-c2ccc(O)cc2)oc2cc(O)cc(O)c12 [Compound 3, apigenin] | 29.06 ± 1.86 ^cd % | 5.22 ± 0.19 | > 50 |  | 0.05 ± 0.00 ^d mmol Trolox/L |  | 0.01 ± 0.01 ^c mmol Trolox/L |  |  |
| COC(=O)[C@H]1O[C@@H](Oc2cc(O)c3c(=O)cc(-c4ccc(O)cc4)oc3c2)[C@H](O)[C@@H](O)[C@@H]1O [Compound 4, apigenin-7-O-β-D-glucuronide methyl ester] | 68.54 ± 2.90 ^b % | 31.5 ± 1.75 | 14.2 ± 0.34 |  | 0.21 ± 0.01 ^b mmol Trolox/L |  | 0.02 ± 0.00 ^c mmol Trolox/L |  |  |
| COC(=O)[C@H]1O[C@@H](Oc2cc(-c3cc(=O)c4c(O)cc(O)cc4o3)ccc2O)[C@H](O)[C@@H](O)[C@@H]1O [Compound 5, vitegnoside] | 69.67 ± 2.20 ^b % | 9.92 ± 0.36 | 19.3 |  | 0.92 ± 0.00 ^a mmol Trolox/L |  | 1.02 ± 0.01 ^a mmol Trolox/L |  |  |
| O=c1cc(-c2ccc(O)c(O)c2)oc2cc(O)cc(O)c12 [Compound 6, luteolin] | 12.96 ± 2.08 ^d % | 22.1 ± 1.24 | > 50 |  | 0.99 ± 0.07 ^a mmol Trolox/L |  | 0.37 ± 0.05 ^b mmol Trolox/L |  |  |
| COc1cc(O)c2c(=O)c(O)c(-c3ccc(O)c(O)c3)oc2c1 [Compound 7, rhamnetin] | 85.13 ± 0.81 ^ab % | 16.9 ± 0.67 | 3.04 |  | 0.92 ± 0.07 ^a mmol Trolox/L |  | 0.33 ± 0.04 ^b mmol Trolox/L |  |  |
| O=c1c(O)c(-c2ccc(O)c(O)c2)oc2cc(O)cc(O)c12 [Compound 8, quercetin] | 1.27 ± 0.25 ^e % |  |  |  | 1.05 ± 0.01 ^a mmol Trolox/L |  | 0.01 ± 0.00 ^c mmol Trolox/L |  |  |
| Cc1ccc2c(c1O)C(=O)c1cccc(O)c1C2=O [Compound 9, isozyganein] | 3.13 ± 4.06 ^e % |  | > 50 |  |  |  |  |  |  |
